{"source": "patent US20010025059A1", "about": "“Composition and method for treating non-bacterial prostatitis” (priority 2000, published 2001)", "key": {"[1]": {"assay": "Tests of bioavailability / transmural intestinal absorption", "assay_type": "in vivo", "details": "quercetin alone; transmural intestinal absorption relatively low"}, "[2]": {"test_system": "non-bacterial prostatitis", "assay": "Example II: double blind study, 30 patients without positive bacterial cultures localized to the prostatic fluid", "assay_type": "in vivo, human", "procedure": "A double blind study using 30 patients without positive bacterial cultures localized to the prostatic fluid were enrolled in a double blind study. Seventeen of the patients received a composition comprised of quercetin in amount of 500 milligrams, bromelain in an amount of 10 milligrams, and papain in an amount of 10 milligrams as the active ingredients thereof. After a randomized study was completed, an additional fifteen patients were treated in an open label study with […]. […] The mean symptom score improved from 21.0 to 13.1 in the group receiving quercetin, but from 20.2 to 18.8 in the placebo group. This represented an improvement of 35%. In those patients which received only the quercetin, without the papain and bromelain, with obtainable extra prostatic secretions, the white blood cell count in the prostatic fluid decreased from 16.8 to 5.3, versus a decrease from 13.1 to 8.3 in the placebo patients."}}}
{"smiles": "O=c1c(O)c(-c2ccc(O)c(O)c2)oc2cc(O)cc(O)c12", "note": "[quercetin]", "values": [{"measurement": "bioavailability", "setting": "[1]", "value": "does not have a high bioavailability"}, {"measurement": "mean symptom score, after treatment", "setting": "[2]; end of study", "value": 13.1}, {"measurement": "improvement of mean symptom score", "setting": "[2]; human, in vivo", "value": 35, "unit": "%"}, {"measurement": "white blood cell count in the prostatic fluid, after treatment", "setting": "[2]; patients with obtainable prostatic secretions, end of study", "value": 5.3}, {"measurement": "white blood cell count in the prostatic fluid, before treatment", "setting": "[2]; patients with obtainable prostatic secretions, starting value", "value": 16.8}, {"measurement": "mean symptom score, before treatment", "setting": "[2]; starting value of the group", "value": 21.0}]}
